For test [1], the system named is Candida albicans. Nature of the test: Rate of transport of compound in Candida albicans ATCC 26278. The format is functional.
Test [2] has as its system Candida albicans. Nature of the test: Intracellular cleavage exhibited in Candida albicans ATCC 26278. The format is functional.

Turning to `CCC[C@H](NC(=O)[C@H](N)CCSC)C(=O)N[C@@H](CNC(=O)CI)C(=O)O`, the Transport rate with Candida albicans [1] amounted to 0.5 µmol/min/mg. Consider `CSCCC(N)C(=O)NC(CNC(=O)CI)C(=O)O` (centres undefined), for which the Cleavage rate in the test on Candida albicans [2] was 3.1 µmol/min/mg. In addition, the Transport rate in the test with Candida albicans [1] stood at 1.9 µmol/min/mg. Take `CCC[C@H](NC(=O)[C@@H](N)CCSC)C(=O)N[C@@H](CNC(=O)CI)C(=O)O`: the Cleavage rate with Candida albicans [2] is 3.8 µmol/min/mg.
